In general, Ki refers to the equilibrium dissociation constant of an inhibitor or competing ligand from its target. Low readings indicate higher affinity, high ones lower affinity.

15 compounds from ChEMBL document CHEMBL2029292, “Identification of novel adenosine A(2A) receptor antagonists by virtual screening” (J Med Chem, 2012) can be followed below.

A value given as a limit tells only on which side of the number the result lay.

Experiment [1] has as its target Adenosine receptor A2a (Homo sapiens, UniProt P29274). Briefly: Displacement of [3H]ZM241385 from human A2A receptor expressed in HEK293 cells after 1 hr by liquid scintillation counting. The experiment is classed as cell-based.
For experiment [2], the system named is HEK293. Description: Selectivity ratio of Ki for human A1 receptor expressed in CHO cells to Ki for human A2A receptor expressed in HEK293 cells. The experiment is classed as cell-based.

Chain of Adenosine receptor A2a (P29274 whole entry): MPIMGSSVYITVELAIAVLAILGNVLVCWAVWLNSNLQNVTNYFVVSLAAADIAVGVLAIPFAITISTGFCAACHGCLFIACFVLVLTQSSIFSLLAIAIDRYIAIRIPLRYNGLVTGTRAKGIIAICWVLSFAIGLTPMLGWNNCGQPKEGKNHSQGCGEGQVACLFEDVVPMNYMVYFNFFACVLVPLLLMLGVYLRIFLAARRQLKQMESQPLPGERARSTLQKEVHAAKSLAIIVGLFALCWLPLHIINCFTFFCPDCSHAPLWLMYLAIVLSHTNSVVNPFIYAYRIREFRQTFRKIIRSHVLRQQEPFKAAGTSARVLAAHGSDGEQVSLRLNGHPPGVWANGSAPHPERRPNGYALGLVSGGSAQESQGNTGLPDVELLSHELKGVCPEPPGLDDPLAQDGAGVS

`O=C(c1ccc(F)cc1)c1c[nH]c(C(=O)NCCCn2ccnc2)c1`: the affinity in experiment [1] corresponds to a Ki of 4680 nM.
Consider `Cc1cc(O)c(C(C)C)cc1N=C1CSC(=O)N1`, for which affinity in experiment [1] was put at a Ki of 1780 nM.
Turning to `CCc1cc2c(=O)c(-c3nc(C)cs3)coc2cc1OCC(=O)OC(C)C`, the Ki in experiment [1] was 15.1 nM. For the same compound, the Ratio Ki in experiment [2] is greater than 100.
Compound `Nc1cccc(CC2SC(=O)NC2=O)c1` (stereo unspecified) gave a Ki in experiment [1] of 7080 nM.
Regarding `COC1CCN(c2cccc(-c3nc(N)nc(-c4ccccc4O)n3)c2)CC1`, the Ki in experiment [1] was 1.58 nM. Besides, in experiment [2], the Ratio Ki stood at 19.
In the case of `CC(C)c1nc(N)nc(-c2ccccc2O)n1`, the affinity in experiment [1] corresponds to a Ki of 12.3 nM. Besides, in experiment [2], the Ratio Ki came out at 37.
`CC(=O)Oc1cc(C)c2c(=O)c(-c3nc(C)cs3)coc2c1`: the Ki in experiment [1] is 33.9 nM. Further, the Ratio Ki in experiment [2] is 13.
As for `COc1ccc(N2CC(C(=O)NC(Cc3ccccc3)C(=O)O)CC2=O)cc1` (stereo unspecified), the affinity in experiment [1] corresponds to a Ki of 2950 nM.
Consider `Cc1csc(-c2coc3cc(OCC(=O)O)cc(C)c3c2=O)n1`, for which the Ki in experiment [1] is 2240 nM. The Ki values of the last two compounds are within 1.5-fold of each other.
In experiment [1], `Cc1ccsc1/C=C/c1nc(N)nc(-c2ccccc2O)n1` showed a Ki of 3.47 nM. Moreover, in experiment [2], the Ratio Ki stood at 9.5.
With `NC(c1csc(Nc2nncc3ccccc23)n1)c1ccccc1Cl` (stereo unspecified), the Ki in experiment [1] is 2400 nM.
Compound `CSc1nc2nc3c(c(O)n2n1)CN(Cc1ccccc1)CC3` gave a Ki in experiment [1] of 708 nM.
In experiment [1], `CC1CC(c2ccccc2)n2nc(N3C(=O)C4CC=CCC4C3=O)nc2N1` (stereo unspecified) had a Ki of 2000 nM.
On to `COCCN1C(=O)c2[nH]nc(-c3ccccc3O)c2C1c1ccc(F)cc1` (stereo unspecified), for which affinity in experiment [1] was put at a Ki of 1230 nM.
Turning to `CN1CCN(C(=O)c2cccc(-c3nc(N)nc(-c4ccccc4O)n3)c2)CC1`, in experiment [1], the affinity corresponds to a Ki of 1.02 nM. Moreover, the Ratio Ki in experiment [2] is 59.
